The record followed here is PubChem BioAssay (NCI).

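These data come from cells grown in 96-well plates and exposed to compound for 48 hours at five concentrations. The concentration for full growth arrest is given as TGI.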

One assay deals with SN12C renal. The assay can be described thus: NCI tumour cell line growth inhibition, 48 h.
For `COc1ccc(C2c3cc4c(cc3C(O)C3CCC(=O)N23)OCO4)cc1` (stereo not given), the TGI is more than 100 µM.
Same read-out and setting: the result for `CC1(C)C(=O)N(O)C(C)(C)N1O` reads more than 10 µM.
Take `CCOC(=O)/C(O)=C(/C=N\C(=S)Nc1ccccc1Cl)C(=O)OCC`: the TGI is more than 100 µM.
On the same count and under the same terms, the result for `CCOC(=O)CCC(NC(=O)Cc1ccc(Nc2nc3ccccc3nc2-c2ccccc2)cc1)C(=O)OCC` (stereo not given) reads more than 100 µM; that for `Cc1nc2sc(CCl)nn2c(=O)c1Cl`, 26.6 µM.
In the case of `COc1ccc(/C=C(\Cl)c2ccc(OC)c(OC)c2)cc1OC`, the TGI is more than 100 µM.
On to `CCOC(=O)c1ccc(C(=O)OCC)n1-c1cc2cc(c1)CSCc1cc(cc(-n3c(C(=O)OCC)ccc3C(=O)OCC)c1)CSC2`, for which the TGI was more than 10 µM.
The same measure, in the same setting: under `Cc1ccc(NCC2CC/C(=C\c3ccc(Cl)cc3)C2=O)cc1` (stereo not given) stands 33.3 µM; under `COc1cc(OCc2ccc3nc(-c4ccccc4)c(N)nc3c2)cc(OC)c1OC`, more than 100 µM.
The same measure, in the same setting: the result for `O=S1(=O)c2cnccc2NC(=NCc2cccc3ccccc23)N1c1ccccc1` reads more than 100 µM.
As to `Cc1occc1C(=S)Nc1ccc(Cl)c(C(=O)OCC(F)(F)F)c1`, the TGI was 41.4 µM.

The subject of another assay is SNB-75 CNS. Nature of the assay: NCI tumour cell line growth inhibition, 48 h.
With `COc1ccc(C2c3cc4c(cc3C(O)C3CCC(=O)N23)OCO4)cc1` (stereo not given), the TGI was more than 100 µM.
The compound `CC1(C)C(=O)N(O)C(C)(C)N1O` displayed a TGI of more than 10 µM.
`CCOC(=O)/C(O)=C(/C=N\C(=S)Nc1ccccc1Cl)C(=O)OCC`: the TGI was more than 100 µM.
As to `CCOC(=O)CCC(NC(=O)Cc1ccc(Nc2nc3ccccc3nc2-c2ccccc2)cc1)C(=O)OCC` (stereo not given), the TGI was 38.3 µM.
For the compound `Cc1nc2sc(CCl)nn2c(=O)c1Cl`, the TGI is 24.7 µM.
On to `COc1ccc(/C=C(\Cl)c2ccc(OC)c(OC)c2)cc1OC`, for which the TGI was more than 100 µM.
Turning to `CCOC(=O)c1ccc(C(=O)OCC)n1-c1cc2cc(c1)CSCc1cc(cc(-n3c(C(=O)OCC)ccc3C(=O)OCC)c1)CSC2`, the TGI is more than 10 µM.
On the same count and under the same terms, the result for `Cc1ccc(NCC2CC/C(=C\c3ccc(Cl)cc3)C2=O)cc1` (stereo not given) reads more than 100 µM.
The same measure, in the same setting: under `COc1cc(OCc2ccc3nc(-c4ccccc4)c(N)nc3c2)cc(OC)c1OC` stands 59.7 µM; under `O=S1(=O)c2cnccc2NC(=NCc2cccc3ccccc23)N1c1ccccc1`, more than 100 µM.
On the same count and under the same terms, under `Cc1occc1C(=S)Nc1ccc(Cl)c(C(=O)OCC(F)(F)F)c1` stands 49.4 µM.

The next assay deals with IGROV1 ovarian. Nature of the assay: NCI tumour cell line growth inhibition, 48 h.
As for `COc1ccc(C2c3cc4c(cc3C(O)C3CCC(=O)N23)OCO4)cc1` (stereo not given), the TGI was more than 100 µM.
The same measure, in the same setting: under `CC1(C)C(=O)N(O)C(C)(C)N1O` stands more than 10 µM; under `CCOC(=O)/C(O)=C(/C=N\C(=S)Nc1ccccc1Cl)C(=O)OCC`, more than 100 µM; under `CCOC(=O)CCC(NC(=O)Cc1ccc(Nc2nc3ccccc3nc2-c2ccccc2)cc1)C(=O)OCC` (stereo not given), more than 100 µM.
As for `Cc1nc2sc(CCl)nn2c(=O)c1Cl`, the TGI was found to be 34.8 µM.
Same read-out and setting: under `COc1ccc(/C=C(\Cl)c2ccc(OC)c(OC)c2)cc1OC` stands more than 100 µM; under `CCOC(=O)c1ccc(C(=O)OCC)n1-c1cc2cc(c1)CSCc1cc(cc(-n3c(C(=O)OCC)ccc3C(=O)OCC)c1)CSC2`, more than 10 µM.
`Cc1ccc(NCC2CC/C(=C\c3ccc(Cl)cc3)C2=O)cc1` (stereo not given) had a TGI of 38 µM.
Compound `COc1cc(OCc2ccc3nc(-c4ccccc4)c(N)nc3c2)cc(OC)c1OC` had a TGI of 55.9 µM.
`O=S1(=O)c2cnccc2NC(=NCc2cccc3ccccc23)N1c1ccccc1`: the TGI was more than 100 µM.
In turn, `Cc1occc1C(=S)Nc1ccc(Cl)c(C(=O)OCC(F)(F)F)c1` registered a TGI of 39.7 µM.

For another assay, the system named is SF-268 CNS. The assay can be described thus: NCI tumour cell line growth inhibition, 48 h.
Compound `COc1ccc(C2c3cc4c(cc3C(O)C3CCC(=O)N23)OCO4)cc1` (stereo not given) yielded a TGI of more than 100 µM.
As for `CC1(C)C(=O)N(O)C(C)(C)N1O`, the TGI is more than 10 µM.
`CCOC(=O)/C(O)=C(/C=N\C(=S)Nc1ccccc1Cl)C(=O)OCC` yielded a TGI of more than 100 µM.
For `CCOC(=O)CCC(NC(=O)Cc1ccc(Nc2nc3ccccc3nc2-c2ccccc2)cc1)C(=O)OCC` (stereo not given), the TGI was 23.7 µM.
The compound `Cc1nc2sc(CCl)nn2c(=O)c1Cl` returned a TGI of 33.4 µM.
On to `COc1ccc(/C=C(\Cl)c2ccc(OC)c(OC)c2)cc1OC`, for which the TGI was more than 100 µM.
Still for that read-out and setting: under `CCOC(=O)c1ccc(C(=O)OCC)n1-c1cc2cc(c1)CSCc1cc(cc(-n3c(C(=O)OCC)ccc3C(=O)OCC)c1)CSC2` stands more than 10 µM; under `Cc1ccc(NCC2CC/C(=C\c3ccc(Cl)cc3)C2=O)cc1` (stereo not given), 56.4 µM; under `COc1cc(OCc2ccc3nc(-c4ccccc4)c(N)nc3c2)cc(OC)c1OC`, more than 100 µM.
Compound `O=S1(=O)c2cnccc2NC(=NCc2cccc3ccccc23)N1c1ccccc1` had a TGI of more than 100 µM.
For the compound `Cc1occc1C(=S)Nc1ccc(Cl)c(C(=O)OCC(F)(F)F)c1`, the TGI came to 42.3 µM.

The subject of another assay is T-47D breast. Nature of the assay: NCI tumour cell line growth inhibition, 48 h.
On to `COc1ccc(C2c3cc4c(cc3C(O)C3CCC(=O)N23)OCO4)cc1` (stereo not given), for which the TGI is more than 100 µM.
In turn, `CC1(C)C(=O)N(O)C(C)(C)N1O` returned a TGI of more than 10 µM.
Still for that read-out and setting: the result for `CCOC(=O)/C(O)=C(/C=N\C(=S)Nc1ccccc1Cl)C(=O)OCC` reads more than 100 µM; that for `CCOC(=O)CCC(NC(=O)Cc1ccc(Nc2nc3ccccc3nc2-c2ccccc2)cc1)C(=O)OCC` (stereo not given), more than 100 µM; that for `Cc1nc2sc(CCl)nn2c(=O)c1Cl`, 28.3 µM.
Still for that read-out and setting: under `COc1ccc(/C=C(\Cl)c2ccc(OC)c(OC)c2)cc1OC` stands more than 100 µM.
Regarding `CCOC(=O)c1ccc(C(=O)OCC)n1-c1cc2cc(c1)CSCc1cc(cc(-n3c(C(=O)OCC)ccc3C(=O)OCC)c1)CSC2`, the TGI is more than 10 µM.
On to `Cc1ccc(NCC2CC/C(=C\c3ccc(Cl)cc3)C2=O)cc1` (stereo not given), for which the TGI worked out at 46.5 µM.
On the same count and under the same terms, under `COc1cc(OCc2ccc3nc(-c4ccccc4)c(N)nc3c2)cc(OC)c1OC` stands 42.5 µM; under `O=S1(=O)c2cnccc2NC(=NCc2cccc3ccccc23)N1c1ccccc1`, more than 100 µM; under `Cc1occc1C(=S)Nc1ccc(Cl)c(C(=O)OCC(F)(F)F)c1`, 72.4 µM.
